Experimental data taken from patent publication US8343512B2, “Treatment of allergic conditions using a composition containing synthetic adjuvant” (Infectious Disease Research Institute, priority 2006, dated 2013).

Legend:
USP Rabbit Pyrogen Test = conditions: in vivo
Procedure: GLA and MPL were evaluated for pyrogenicity/toxicity using the United States Pharmacopeial (USP) rabbit pyrogen test method. GLA was tested at the same doses and conditions commonly used for MPL.

Human whole blood cells = experiment: GLA stimulation of human blood cells, IL-1β ELISA; format: cell-based; conditions: 16 hours
Procedure: Human whole blood cells were cultured with various adjuvant concentrations of either synthetic GLA (Avanti Polar Lipids, Inc., Alabaster, Ala.; product number 699800) or the natural product MPL® (GSK Biologicals, Rixensart, Belgium), achieved by diluting an aqueous adjuvant preparation in cell culture medium (DMEM containing 10% fetal bovine serum). Blood cells were maintained for 16 hours at 37° C. in a humidified atmosphere containing 5% CO2, prior to collection of cell-free culture supernatants. Supernatant fluids were assayed for soluble human cytokine IL-1β using specific sandwich ELISA assay kit (eBiosciences, San Diego, Calif.) according to the manufacturer's instructions.

Leish-110f antigen = Leish-110f antigen with different amounts of GLA-SE in mice, IgG1/IgG2a ELISA; format: in vivo, Mice (Balb/c)
Procedure: Mice (three Balb/c animals per group) were immunized three times at two-week intervals with the Leish-110f antigen (10 μg per animal for each immunization) formulated in a stable emulsion containing different amounts of GLA (Avanti Polar Lipids, Inc., Alabaster, Ala.; product number 699800; 40, 20, 5, or 1 μg per animal for each immunization according to the procedure used in Example 3 above, GLA-SE). Sera were collected by bleeding animals one week after the first immunization, and serum levels of IgG1 and IgG2a antibodies specific for Leish-110f were examined by ELISA according to published methods (Id.).

[1] = system: Dendritic cells derived from purified blood CD14+ monocytes; experiment: GLA stimulation of human dendritic cells, CD86 surface expression by flow cytometry; format: cell-based
Description: Dendritic cells were derived from purified blood CD14+ monocytes following a published protocol. Various adjuvant concentrations of either synthetic GLA (Avanti Polar Lipids, Inc., Alabaster, Ala.; product number 699800) or the natural product MPL® (GSK Biologicals, Rixensart, Belgium) were achieved by diluting an aqueous adjuvant preparation in cell culture medium (RPMI containing 5% human serum). Prior to collection and analysis of the expression of activation markers, cells were maintained for 44 hours at 37° C. in a humidified atmosphere containing 5% CO2. Expression levels of the costimulatory molecule CD86 at the surface of DC were used as an indicator of cell activation and measured by flow cytometry on a LSRII instrument (BD Biosciences, San Jose, Calif.) using CD86-specific fluorochrome-labeled antibody (eBiosciences, San Diego, Calif.) according to the manufacturer's instructions.

Influenza = experiment: Fluzone vaccine with GLA-AF or GLA-SE in mice, anti-Fluzone IgG ELISA and HAI; format: in vivo, Mice (Balb/c); conditions: GLA 20 μg in aqueous or stable oil formulation; compared to Fluzone alone
Procedure: Mice (three Balb/c animals per group) were immunized twice at three-week intervals with the Fluzone vaccine (Sanofi-Aventis, Swiftwater, Pa., at 1/25 (20 μl) and 1/250 (2 μl) of the human dosage, alone, or formulated in (i) an aqueous emulsion containing GLA (Avanti Polar Lipids, Inc., Alabaster, Ala.; product number 699800; 20 μg per animal for each immunization) according to the procedure used in Example 1 above (“GLA-AF”), or (ii) a stable emulsion containing GLA (Avanti Polar Lipids, Inc., Alabaster, Ala.; product number 699800; 20 μg per animal for each immunization) according to the procedure used in Example 3 above (“GLA-SE”). Sera were collected by bleeding animals one week after each immunization, and serum levels of total IgG antibodies specific for Fluzone were examined by ELISA according to published methods (Id.). Serum levels of virus neutralizing antibodies were also examined by Hemagglutination Inhibition Assay (HAI) according to published methods.

ID83 antigen = ID83 antigen with GLA-SE, GLA/CpG-SE or GLA/GDQ-SE in mice, intracellular cytokine staining; format: in vivo, Mice (C57BL/6); conditions: GLA/GDQ-SE or GLA/CpG-SE versus GLA-SE
ML0276 antigen = ML0276 antigen with CpG, Imiquimod, GLA-SE or mix in mice, IFN-γ CD4+ T cell ICS; format: in vivo, Mice (C57BL/6); conditions: adjuvant given with ML0276 antigen 10 μg; saline background 0.04%
Procedure: Mice (three C57BL/6 animals per group) were immunized three times at three-week intervals with the ML0276 antigen (10 μg per animal for each immunization) adjuvanted with aqueous formulations containing CpG (CpG1826, Coley Pharmaceutical, 25 μg per animal for each immunization), or Imiquimod (IMQ) (3M Pharma, 25 μg per animal for each immunization), or GLA (Avanti Polar Lipids, Inc., Alabaster, Ala.; product number 699800; 25 μg per animal for each immunization, according to the procedure used in Example 3 above, GLA-SE), a mix of the three, or saline as negative control. Three weeks after the last injection, mice were sacrificed and spleen collected to analyze CD4+ T cell-dependent IFN-γ cytokine responses to in vitro ML0276 antigen stimulation by ICS and Flow cytometry according to published methods. Expression of IFN-γ cytokine has been associated with protective TH1 responses against M. leprae infection.

Question: For CCCCCCCCCCCCCC(=O)O[C@H](CCCCCCCCCCC)CC(=O)O[C@@H]1[C@@H](NC(=O)C[C@@H](CCCCCCCCCCC)OC(=O)CCCCCCCCCCC)[C@H](OC[C@H]2O[C@H](O)[C@H](NC(=O)C[C@H](O)CCCCCCCCCCC)[C@@H](OC(=O)C[C@H](O)CCCCCCCCCCC)[C@@H]2O)O[C@H](CO)[C@H]1OP(=O)(O)O [GLA, glucopyranosyl lipid adjuvant], which “pyrogenicity/toxicity, USP<151> requirements” value (USP Rabbit Pyrogen Test) is on record?
Answer: The value was “passed the USP<151> requirements for the absence of pyrogens”.

Question: And the “concentration equivalent in potency (IL-1β secretion)” value (Human whole blood cells)?
Answer: Its value is 0.092 µM.

Question: And the “Leish-110f-specific IgG1 and IgG2a antibody titers” value (Leish-110f antigen; GLA 40, 20, 5, or 1 μg in GLA-SE, one week after the first immunization)?
Answer: The value was “GLA dose-dependent”.

Question: What about the “predominant Leish-110f-specific antibody isotype” value (Leish-110f antigen; all concentrations of GLA tested) of the same molecule?
Answer: The value was “Predominance of TH1 associated IgG2a antibody”.

Question: What about the “active at concentrations lower compared to MPL for human dendritic cell maturation” value ([1]; CD86 expression) of the same molecule?
Answer: The value was “at least 10 fold”.

Question: And the “CD86 expression, GLA versus MPL” value ([1]; additional three donors, 1000 ng/ml to 1 ng/mL)?
Answer: The value was “lower doses of GLA achieved higher CD86 expression than MPL”.

Question: What about the “Total IgG and neutralizing antibody titers in response to Fluzone vaccination” value (Influenza) of the same molecule?
Answer: The value was “enhanced”.

Question: Which “frequency of ID83 specific cytokine producing T cells on addition of a second TLR ligand to ID83+GLA-SE” value (ID83 antigen) does the source give for CCNCc1nc2c(N)nc3ccccc3c2n1CC(C)(C)O [GDQ, Gardiquimod] here?
Answer: Its value is “further increased”.

Question: With CC(C)Cn1cnc2c(N)nc3ccccc3c21 [IMQ, Imiquimod] as the molecule, how does the “frequency of ML0276 specific IFN-γ+ CD4+ T cells (positive cells)” value (ML0276 antigen) read?
Answer: Its value is 0.11%.
